Source: US20110146678A1, “PROCESS FOR IMPROVING CRYSTALLINITY” (priority 2008, published 2011)

Experiments:
Format in all cases: physicochemical
[1] = Aerosolisation efficiency of combination DPI formulations FP/micronized SX 500/50, NGI via Rotahaler and Cyclohaler, incl. 1 month storage; settings: for % FPF under stressed storage conditions: 1 month at 25° C./75% RH; for FPF of FP compared with micronized sample: T=0, Cyclohaler; for FPF of FP compared with micronized sample / FPF of FP compared with other samples: 500/50 blend with micronized SX; for FPF of FP compared with other samples: T=0, Rotahaler
Procedure: The aerosolisation efficiency of samples 2, 3 and 4 of fluticasone propionate (FP) produced as described in Example 2 was assessed in combination dry powder inhaler (DPI) formulations containing micronized salmeterol xinafoate (SX) using a Rotahaler® unit dose DPI device (GSK, Ware, UK) and Cyclohaler® unit dose DPI device (TEVA Pharmaceuticals, Netherlands).
The aerosolization efficiency was evaluated in combination DPI formulations also containing micronized SX. Each combination formulation contained 0.16000 g FP (sample 2, 3 or 4), 0.02320 g SX and 3.8168 g lactose (ML001, DMV-Fonterra, Vehgel, Netherlands) and was prepared by geometric mixing. Following this, each blend was subsequently prepared using a Turbula T2F (Willy A Bachofen A G, Basel, Switzerland) at 46 rpm for 45 minutes. The blend strength of each combination formulation equated to 500 μg FP and 50 μg Salmeterol base. This matches the dose strength of Advair 500/50. A sample of Advair 500/50 was used as the micronized example. The aerolisation efficiency of four different formulations containing FP samples 2, 3, 4 or micronized FP was measured.
Following content uniformity testing, 12.5±0.5 mg of each blend was loaded into size 3 hydroxypropylmethyl cellulose capsules (HPMC, Shionogi Qualicaps S A, Basingstoke, UK). The capsules were stored at 44% RH for 24 h prior to in vitro performance testing.
Testing was performed using a Next Generation Impactor (NGI) with pre-separator, which was connected to a vacuum pump (GE Motors). Prior to testing, the pre-separator was filled with 15 ml of mobile phase and the cups of the NGI cups were coated with 1% v/v silicone oil in hexane to eliminate particle bounce.
For each experiment, two individual capsules of the same formulation were discharged into the NGI at 60 Lpm for 4 s via a Rotahaler (GSK, Ware, UK) and 90 Lpm for 2.8 s via a Cyclohaler (TEVA Pharmaceuticals, Netherlands) to ensure both devices were operated such that 4 kPa pressure drop was generated.
Additionally, blisters from a commercially available Advair 500/50 Diskus (GSK, USA) were emptied and 12.5 mg of formulation was transferred into size 3 HPMC capsules and discharged into a NGI at 60 Lpm for 4 s via a Rotahaler and at 90 Lpm for 2.8 s via a Cyclohaler.
Following aerosolization, the NGI apparatus was dismantled and the inhaler, capsules and each part of the NGI was washed down into known volumes of HPLC mobile phase. The mass of drug deposited on each part of the NGI was determined by HPLC. This protocol was repeated three times for each blend, following which, the fine particle dose (FPD) and fine particle fraction of the loaded dose (FPFLD) were determined. The FPD represented the mass of drug that was collected on stages 3-8 of the NGI.

[2] = Storage stability of FPF of binary DPI formulations at 25° C./75% RH
Procedure: All formulations were stored for one and three months at 25° C./75% RH. The FPF of the formulation containing micronized fluticasone propionate decreased by almost 50% after storage for one month and almost 70% after storage for three months compared to the FPF at t=0. However, the FPF of formulations containing particles prepared by the current invention were not as affected following storage in stress conditions. The FPF of sample 3 decreased 6% after storage for one month and decreased 3% after storage for three months compared to the FPF at t=0. The FPF of sample 2 decreased 7% after one months storage and 28% after three months storage compared to the FPF at t=0. There was a small yet statistically significant decrease, 29%, in the fine particle fraction of the formulation containing sample 4 which was prepared by alternative precipitation approach after one month with a decrease of 24% after 3 months storage compared to the FPF at t=0. This may be related to the planar morphology of the particles, and therefore, the particles are likely to develop greater adhesion to the lactose as result of capillary forces. It is clear that the FPF of samples 2 and 3 maintained a higher FPF than the micronized sample or sample 4 when stored for one or three months in the conditions described. The FPF of samples 2 and 3 decreased by a smaller percentage than the micronized sample when stored for one or three months in the conditions described. […] Sample 4 has a much lower FPF than samples 2 and 3 after storage for one or three months.

[3] = Specific surface area by five-point BET nitrogen adsorption
Procedure: The surface roughness and surface area of micronized Fluticasone Propionate (FP), sample 3 of FP prepared by the current invention and sample 4 of FP, as described in Example 2, were determined using atomic force microscopy (AFM) and BET surface area analysis, respectively. The roughness of imaged areas was quantified using the mean (Ra) and root mean square (Rq) of the variations in the height of the imaged surface. Furthermore, the surface area of samples was determined by a five-point BET nitrogen adsorption analysis. The specific surface areas of the FP samples were measured using a Gemini 2360 surface area analyser (Micromeritics Instrument Corporation, Norcross, USA). A five-point BET nitrogen adsorption analysis was carried out after degassing the samples for 24 hours in a FlowPrep 060 degasser (Micromeritics Instrument Corporation, Norcross, USA).

[4] = Surface roughness by TappingMode AFM; settings: 1 μm×1 μm areas, SD in brackets; for Ra(± nm): mean surface roughness; for Rq(± nm): root mean square roughness
Procedure: The degree of corrugation and surface morphology of samples was quantified using AFM. The surface topography and roughness measurements of particles of this invention were investigated using a Nanoscope IIIa controller, a Multimode AFM and a J-type scanner (all DI, Santa Babara, Calif., USA). All AFM surface topography images were recorded in Tapping Mode operation, in which, imaging was conducted using TESP Olympus tips (Di, Cambridge, UK) at a scan rate of 1 Hz. Surface roughness measurements were analysed over a 1 μm×1 μm area. To quantify the variations in the surface properties of the crystal surfaces, the root-mean-squared surface roughness measurement (Rq) and the mean surface roughness (Ra) of the height deviations of the surface asperities were computed.
The surface roughness and surface area of micronized Fluticasone Propionate (FP), sample 3 of FP prepared by the current invention and sample 4 of FP, as described in Example 2, were determined using atomic force microscopy (AFM) and BET surface area analysis, respectively. The roughness of imaged areas was quantified using the mean (Ra) and root mean square (Rq) of the variations in the height of the imaged surface. Furthermore, the surface area of samples was determined by a five-point BET nitrogen adsorption analysis.
The surface topography of the FP samples was investigated with TappingMode™ atomic force microscopy (AFM) using a Multimode AFM, J-type scanner, Nanoscope IIIa controller (all from DI, Cambridge, UK) and a silicon tip (model number OMCL-AC240TS, Olympus, Japan) to image three randomly selected 1 μm×1 μm square areas on the surface of particles of each material with a resolution of 512×512 pixels and a scan rate of 1 Hz. The roughness of imaged areas was quantified using the mean (Ra) and root mean square (Rq) of the variations in the height of the imaged surface, as calculated by the AFM software using the following equations: […]
where np is the number of points in the image and yi is the distance of point i from the centre line.

[5] = storage one month at 25° C./75% RH
[6] = storage three months at 25° C./75% RH

% FPF under stressed storage conditions [1] | FPF of FP compared with micronized sample [1] | decrease of FPF compared to FPF at t=0 [2, 5] | decrease of FPF compared to FPF at t=0 [2, 6] | Surface Area [3] | Ra(± nm) [4] | Rq(± nm) [4] | decrease of FPF compared to FPF at t=0 ([2]; storage one month at 25° C./75% RH, listed as micronized fluticasone propionate) | decrease of FPF compared to FPF at t=0 ([2]; storage three months at 25° C./75% RH, listed as micronized fluticasone propionate) | Compound | FPF of FP compared with other samples [1]
not significantly affected | greater than the micronized sample | 7% | 28% | – | – | – | – | – | CCC(=O)O[C@]1(C(=O)SCF)[C@H](C)C[C@H]2[C@@H]3C[C@H](F)C4=CC(=O)C=C[C@]4(C)[C@@]3(F)[C@@H](O)C[C@@]21C [Sample 2, Fluticasone propionate] | greater than sample 4 and the micronized sample
not significantly affected | greater than the micronized sample | 6% | 3% | 10.79 m^2/g | 53.79 (2.11) nm | 72.11 (1.35) nm | – | – | CCC(=O)O[C@]1(C(=O)SCF)[C@H](C)C[C@H]2[C@@H]3C[C@H](F)C4=CC(=O)C=C[C@]4(C)[C@@]3(F)[C@@H](O)C[C@@]21C [Sample 3, Fluticasone propionate] | greater than sample 4 and the micronized sample
not significantly affected | greater than the micronized sample | 29% | 24% | 7.49 m^2/g | 11.20 (1.55) nm | 16.52 (3.13) nm | – | – | CCC(=O)O[C@]1(C(=O)SCF)[C@H](C)C[C@H]2[C@@H]3C[C@H](F)C4=CC(=O)C=C[C@]4(C)[C@@]3(F)[C@@H](O)C[C@@]21C [Sample 4, fluticasone propionate, reference compound] | poor performance
not significantly affected | – | – | – | 6.55 m^2/g | 30.97 (12.25) nm | 45.07 (11.76) nm | ~50% | ~70% | CCC(=O)O[C@]1(C(=O)SCF)[C@H](C)C[C@H]2[C@@H]3C[C@H](F)C4=CC(=O)C=C[C@]4(C)[C@@]3(F)[C@@H](O)C[C@@]21C [micronized FP, Fluticasone Propionate] | –
